Data as given in patent US12636386B2, “Compositions and methods for the treatment and imaging of cancer” (BOARD OF REGENTS OF THE UNIVERSITY OF NEBRASKA, priority 2021, dated 2026).
“And” between values parts separate entries of the source, which are not always exact repeats. Equal values may be shown once. Read-outs that look alike come from different tables or passages of the source.

Key:
[1] = from Kortylewicz, et al. (2020) J Med Chem; cited from earlier work
[2] = from Kortylewicz, et al. (2020) J Med Chem; cited from earlier work; remark: listed apart in the source
[3] = tested on: BE(2)-C cells; experiment: Clonogenic survival of BE(2)-C cells; type: cell-based, human; conditions: on average
Experimental: (§1) Cells were plated into T25 flasks and allowed to grow until ˜60%-70% confluent. Fresh medium (3 ml) was added to one set of flasks (n=4 per time). To the second set of flasks (n=4 per time), fresh medium (3 ml) containing 100-μM nonradioactive MIBG was added. All cells were returned to the incubator for 30 minutes, after which time 3 ml of medium containing GPAID (51.5±1.4 kBq/ml) was added to produce the final concentration of 50-μM MIBG and 25.8±0.7 kBq/ml GPAID. Cells were returned to the incubator for additional 1, 24, and 48 hours. At designated times, media were removed, monolayer washed 1× with full medium, 2× with PBS, and SK and BE cells were harvested with the nonenzymatic cell dissociation solution (Sigma-Aldrich). N1E cells were harvested by flushing the monolayer with spent media. Cell numbers were determined, and their radioactive content measured in a gamma counter. The whole cell uptake was calculated on terms of MBq per cells. The clonogenic survival was calculated as the ratio of the number of colonies produced by cells treated with nonradioactive MIBG and GPAID to the number of colonies produced by cells treated with GPAID only. The cell survival at 24 hours was expressed as the ratio of viable cells in treatment groups to cells in untreated controls.

[4] = target: T1, norepinephrine transporter (Homo sapiens, UniProt P23975); experiment: Competitive uptake assay with nonradioactive MIBG in SK-N-SH cells; type: cell-based; conditions: 50 μM nonradioactive MIBG; 25.8±0.7 kBq/ml GPAID; exponentially growing SK cell monolayers
T1 construct: These cells represent a well-established robust model for the NET-specific MIBG uptake; endogenous in cells; host or cells: SK (SK-N-SH) and BE (BE(2)-C) neuroblastoma cells, exponentially growing monolayers
T1 sequence (P23975 whole entry): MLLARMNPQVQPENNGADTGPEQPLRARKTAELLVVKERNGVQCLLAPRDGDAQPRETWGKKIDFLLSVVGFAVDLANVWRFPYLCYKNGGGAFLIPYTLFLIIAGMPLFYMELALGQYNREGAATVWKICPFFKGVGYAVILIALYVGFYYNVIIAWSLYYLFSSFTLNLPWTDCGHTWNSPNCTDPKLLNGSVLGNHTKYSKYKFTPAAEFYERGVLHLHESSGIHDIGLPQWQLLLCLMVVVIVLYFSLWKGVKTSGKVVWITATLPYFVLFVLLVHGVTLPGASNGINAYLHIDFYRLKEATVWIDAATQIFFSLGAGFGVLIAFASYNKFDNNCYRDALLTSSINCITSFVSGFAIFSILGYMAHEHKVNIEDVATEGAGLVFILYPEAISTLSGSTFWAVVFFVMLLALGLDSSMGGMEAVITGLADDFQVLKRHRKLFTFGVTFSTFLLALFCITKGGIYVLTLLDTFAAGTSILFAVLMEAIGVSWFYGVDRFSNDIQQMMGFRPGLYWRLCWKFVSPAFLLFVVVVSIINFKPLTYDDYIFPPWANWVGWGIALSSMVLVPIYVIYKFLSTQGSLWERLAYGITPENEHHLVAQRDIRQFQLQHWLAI
Experimental: as §1

[5] = target: NET (Homo sapiens, UniProt P23975); conditions: Smets, et al. (1989) Cancer Res.; cited from earlier work
Chain of NET (P23975 whole entry): as above

[6] = target: T1, norepinephrine transporter; experiment: Competitive uptake assay with nonradioactive MIBG in BE(2)-C cells; type: cell-based; conditions: 50 μM nonradioactive MIBG; 25.8±0.7 kBq/ml GPAID; exponentially growing BE cell monolayers
Experimental: as §1

[7] = tested on: N1E-115 cells; experiment: Subcellular distribution in N1E-115 cells; type: cell-based, murine
Excerpt: (§2) Two human NB cell lines SK-N-SH (SK) and BE(2)-C(BE) and one murine NB cell line N1E-115 (N1E) were purchased from the American Type Culture Collection (ATCC; Manassas, VA). Cells were maintained according to the vendor's instructions. For animal studies, cells were harvested when ˜70% confluent and cryopreserved until ready to use.
(§3) Established protocols were used in these experiment (Kortylewicz, et al. (2020) J Med Chem., 63:2051-2073; Baranowska-Kortylewicz, et al. (1994) J Label Compd Radiopharm., 34(6):513-521; Kortylewicz, et al. (2009) J Med Chem., 52(16):5124-5143). Briefly, NB cells plated in TPP T25 flasks (Midwest Scientific, Valley Park, MO) at 5×10^5 cells per flask were maintained in culture for 48-72 hours, depending on the doubling time of the cell line, until 60%-70% confluent. For time-dependent uptake studies, GPAID was added to the growth medium to produce the average concentrations of 28.2±5.5, 27.6±2.8, and 30.7±1.0 kBq/ml in SK, BE, and N1E cells, respectively. Radioactive medium was removed after 1, 5, 16, 24, and 48 hours in culture (n=4 per time). Cells were harvested by scraping and enumerated using Cellometer (Nexcelom Bioscience, Lawrence, MA). Cell suspensions were centrifuged for 10 minutes at 1500 rpm; cell pellets resuspended in ice-cold PBS, transferred into microfuge tubes, and centrifuged at 500×g for 10 minutes. The radioactive content of cell pellets was measured in a gamma counter. The cellular uptake was calculated in terms of MBq per cell. For subcellular fractionation experiments, NB cells grown as monolayers were treated with GPAID and processed as described (Kortylewicz, et al. (2020) J Med Chem., 63:2051-2073). In the concentration-dependent uptake experiments, GPAID in the appropriate medium at several concentrations was added to the cell monolayers. Cells were processed after 1-hour incubation. Radioactive medium was removed, and monolayers were washed once with full nonradioactive medium and PBS. Cells were harvested and enumerated, and their radioactive content was measured.

[8] = tested on: N1E-115 tumors; experiment: Therapy of mice bearing IP N1E allografts; type: in vivo; conditions: single IP dose 3.64±0.10 MBq per mouse 1 week after implant; 14 days after treatment; NT controls 2.61±0.57 g; p=0.03
Experimental: Research involving animals was performed in accordance with the UNMC institutional guidelines and protocols as defined by the Institutional Animal Care and Use Committee for US institutions. Athymic NCr nude mice (spontaneous mutant) were purchased from Taconic (Rensselaer, NY). The intraperitoneal route […] was used for the tumor implant and dose administration. All experiments were conducted in mice of both genders 4 to 8 weeks old.
Four-week-old NCr nu/nu mice, male (n=10) and female (n=10), received IP implant of 5×10^6 N1E cells. One week later, mice were randomly assigned via a lottery to either control or treatment group. Control mice were given IP injection of the vehicle. Mice in the therapy group received a bolus IP injection of 3.64±0.10 MBq GPAID per mouse (˜145 MBq/kg body weight [bw]). Triplicate aliquots of the injected dose (ID) were counted in a gamma counter. Syringes containing the dose and syringes after the injection were weighed on the analytical balance to determine ID. Whole body radioactivity was also measured immediately after each injection to confirm ID. Necropsy was performed at the termination of the experiment. Blood was collected via cardiac puncture. […]
All variables are expressed as average±standard deviation or ±standard error. The cellular uptake, cell survival, and other biological properties were analyzed using two-sided Student's t test. […]

[9] = Hemoglobin and hematocrit in treated tumor-bearing mice; type: in vivo; conditions: mice treated with 3.64±0.10 MBq GPAID IP; termination necropsy
Excerpt: (§4) Four-week-old NCr nu/nu mice, male (n=10) and female (n=10), received IP implant of 5×10^6 N1E cells. One week later, mice were randomly assigned via a lottery to either control or treatment group. Control mice were given IP injection of the vehicle. Mice in the therapy group received a bolus IP injection of 3.64±0.10 MBq GPAID per mouse (˜145 MBq/kg body weight [bw]). Triplicate aliquots of the injected dose (ID) were counted in a gamma counter. Syringes containing the dose and syringes after the injection were weighed on the analytical balance to determine ID. Whole body radioactivity was also measured immediately after each injection to confirm ID. Necropsy was performed at the termination of the experiment. Blood was collected via cardiac puncture. Aliquots were reserved for determination of hemoglobin (Hb; HemoCue, Ängelholm, Sweden) and hematocrit (Hct).

[10] = tested on: BE(2)-C and SK-N-SH cells; experiment: Time- and concentration-dependent cellular uptake, statements covering both NB cell lines; type: cell-based, human
Excerpt: as §2, §3

[11] = Ex vivo stability in human serum; type: in vitro ADME; conditions: 37° C., 5% CO2; average±SE; monoexponential fit of percent intact compound
Experimental: (§5) Aliquots of GPAID (1.4-2.3 MBq) in 120 μl of 25% EtOH/PB (10-mM, pH 6.1) were added to 6.88-ml phosphate-buffered saline (PBS), cell culture media, or serum (mouse, pig, or human). Mixtures were briefly vortexed and incubated at 37° C. and 5% CO2. At selected times, 1 ml of GPAID incubation mixture was withdrawn, 1-ml MeCN was added, and the mixture was vortexed and centrifuged at 2000 rpm for 15 minutes at 4° C. The supernatant was removed, and the radioactivity measured. Supernatant (250-500 μl) were acidified to pH˜6 with 0.05-N TFA (2-8 μl). The excess of MeCN was evaporated with a stream of nitrogen and 100 μl of water added. This mixture was passed through a 0.22-μm filter and 100 μl (111-185 kBq) injected onto the HPLC system. HPLC analysis of extracts proceeded on the ACE C18 100-A column ([…], 4.6×250 mm) eluted at 0.8 ml/minute with a linear gradient of MeCN from 10% to 95% over 45 minutes and kept at 95% MeCN for 15 minutes the radioactivity detection (Bioscan). Both solvents contained 0.07% TFA (v/v).
(§6) Ex vivo stability of GPAID was assessed in PBS, cell culture medium without NB cells, and in the presence of NB cells and in human, mouse, and porcine sera after various times of incubation. […] Half-lives in sera were calculated from the area under the peak of the intact GPAID recovered from the incubation mixtures plotted as a function of the incubation time. […]

[12] = Ex vivo stability in pig serum; type: in vitro ADME; conditions: 37° C., 5% CO2; average±SE; monoexponential fit of percent intact compound
Experimental: as §5, §6

[13] = tested on: NB cells; experiment: Survival of NB cells, trypan blue exclusion method followed by clonogenic assay; type: cell-based, human; conditions: trypan blue exclusion and clonogenic assay; 25.8±0.7 kBq/ml
Experimental: as §1

[14] = tested on: BE(2)-C cells; experiment: Subcellular distribution in BE(2)-C cells; type: cell-based, human
Excerpt: as §2, §3

[15] = tested on: SK-N-SH cells; experiment: Radioactive species in medium recovered from NB cell monolayers cultured with GPAID; type: cell-based, human
Experimental: as §5
Ex vivo stability of GPAID was assessed in PBS, cell culture medium without NB cells, and in the presence of NB cells and in human, mouse, and porcine sera after various times of incubation. The analytical details are provided hereinabove. Half-lives in sera were calculated from the area under the peak of the intact GPAID recovered from the incubation mixtures plotted as a function of the incubation time. The degradation curves followed the first-order kinetics. Data were fitted into the monoexponential equations with the intercept set at 100% (FIG. 2A). In a typical experiment, a final concentration of GPAID in serum approximated radioactivity levels of ^131IMIBG in blood of children receiving therapeutic doses (Pandit-Taskar, et al. (2017) Clin Nucl Med., 42(10):741-748; Matthay, et al. (1998) J Clin Oncol., 16(1):229-236). 0

[16] = Biodistribution at necropsy 14 days after the dose; type: in vivo, mice; conditions: necropsy 14 days after the IP dose
Excerpt: as §4

[17] = Stability in PBS; type: physicochemical; conditions: 37° C.
Experimental: as §5, §6

[18] = Stability in cell culture medium without NB cells; type: physicochemical; conditions: 5% CO2
Experimental: as §5, §6

[19] = tested on: SK-N-SH cells; experiment: Subcellular distribution in SK-N-SH cells; type: cell-based, human
Excerpt: as §2, §3

[20] = Ex vivo stability in mouse serum; type: in vitro ADME; conditions: mouse serum contains esterases including carboxylesterase
Experimental: as §5, §6

[21] = monoprotonated cation at physiological pH; cited from earlier work
[22] = N1E cells, 24-hour incubation, average 29±3 kBq/ml
[23] = 1 hour with GPAID, washed, additional 4 hours in nonradioactive medium
[24] = incubated with exponentially growing NB cell monolayers for 24 hours

## N=C(N)NCCCCCC(=O)O[C@H]1C[C@H](n2cc([125I])c(=O)[nH]c2=O)O[C@@H]1CO [IDG, 5-[^125I]iodo-3′-O-(ε-guanidinohexanoyl)-2′-deoxyuridine]
[1]
  Half-life in pig serum: 3.6 ± 0.1 h
[2]
  Half-life in human serum: 2.3 ± 0.1 h and ~2.3 h

## N=C(N)NCc1cccc([131I])c1 [MIBG, metaiodobenzylguanidine]
[3]; 50-μM MIBG, 25.8±0.7 kBq/ml GPAID
  Colonies from cells exposed to nonradioactive MIBG alongside GPAID compared with GPAID alone: 3 ×
[4]
  Inhibition of GPAID uptake: 70%
[5]
  Concentration at which uptake begins to saturate: > 500 nM
  Concentration up to which uptake is linear: ~100 nM
[6]
  Inhibition of GPAID uptake: 85%

## N=C(N)NCc1cccc([125I])c1 [^125IMIBG]
[7]; N1E cells, 24-hour incubation
  Recovery in the cytoplasmic fraction: majority
[7]; [22]
  ^125I recovered in DNA (DNA pellet): 0%
  ^125I retrieved in the soluble nuclear fraction: ~19%

## (R)-(−)-5-[^125I]Iodo-3′-O-[2-(ε-guanidinohexanoyl)-2-phenylacetyl]-2′-deoxyuridine [GPAID]
[3]; GPAID extracellular concentration 25.8±0.7 kBq/ml
  BE cells that survived, retained reproductive integrity and formed colonies: 32%
[8]
  Average tumor weight at necropsy: 0.88 ± 0.54 g
[9]
  HCt level: within the normal range values
  Hb level: within the normal range values
[10]; 1-hour exposure, all tested concentrations >0.015 MBq/ml
  ^125I disintegrations accumulated in 24 hours: > 20 disintegrations per cell
[10]; 1-hour treatment, entire tested range up to 200 kBq/ml (2.45×10^−9 M)
  Dependence of cellular radioactivity on extracellular concentration: directly proportional to the extracellular concentration of GPAID
[10]; 1 hour incubation, washed and processed immediately
  Cellular uptake in BE cells compared with SK cells: nearly identical
[11]
  Half-life in human serum: 7.9 ± 0.7 h
[12]
  Half-life in pig serum: 5.8 ± 2.1 h
[7]; [22]
  ^125I recovered in DNA (DNA pellet): > 99%
[7]; N1E-115 cells, 24-hour treatment, 29±3 kBq/ml (FIG. 3E)
  ^125I activity in the nuclei bound to DNA: ~100%
[13]
  Survival of NB cells treated with GPAID alone: significant reduction in survival
[14]; [23]
  Total cellular radioactivity associated with DNA: > 95%
[14]; after 1 hour with GPAID
  Total recovered ^125I in DNA: 32%
[14]; at 24 hours
  ^125I associated with DNA: practically all
[15]; SK-N-SH cells cultured with GPAID for 24 hours at 37° C., 5% CO2 (FIG. 2D)
  Total radioactivity in the form of either free ^125I or ^125I-uracil in medium: ~30%
[15]; [24]
  Intact GPAID in recovered media: ~42%
  ^125IUdR in recovered media: ~28%
[16]
  Residual level in the adrenal glands: 0.034±0.016 % ID/g
[16]; all tissues
  Radioactivity retention in tissues: only marginal radioactivity retention
[17]
  Stability in PBS: stable
[18]; 37° C.
  Stability in cell culture in the absence of NB cells: stable
[18]; 24 hours at 37° C.
  Intact GPAID remaining in cell culture medium without cells: > 90%
[19]; [23]
  Total cellular radioactivity associated with DNA: ~75%
[19]; after 1 hour with GPAID
  Total recovered ^125I in DNA: ~22%
[19]; at 24 hours
  ^125I associated with DNA: practically all
[20]
  Stability in mouse serum: not stable
[21]
  pKa: ~12
